According to PMC6328587 (Nature Communications, 2019):

What was measured:
Assay type in all cases: cell-based
p38γ = biological target: T1, p38γ (Homo sapiens, UniProt P53778); experiment: p38γ degradation, western blot in MDA-MB-231 cells; details: concentrations up to 2.5 µM
T1 construct: endogenous in cells; host or cells: MDA-MB-231
T1 sequence (P53778 1-367): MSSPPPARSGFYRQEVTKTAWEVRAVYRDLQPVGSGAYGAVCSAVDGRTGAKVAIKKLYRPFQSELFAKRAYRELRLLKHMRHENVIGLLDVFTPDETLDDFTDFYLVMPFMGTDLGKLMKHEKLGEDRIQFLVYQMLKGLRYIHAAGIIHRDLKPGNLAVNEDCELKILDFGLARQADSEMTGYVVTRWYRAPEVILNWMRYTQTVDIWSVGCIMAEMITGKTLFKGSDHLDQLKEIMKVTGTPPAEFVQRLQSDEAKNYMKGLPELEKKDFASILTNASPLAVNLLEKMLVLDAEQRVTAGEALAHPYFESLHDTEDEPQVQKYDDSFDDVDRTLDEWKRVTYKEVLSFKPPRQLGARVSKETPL
Protocol: […] once with ice-cold PBS (1 × ), followed by lysis in buffer containing 25 mM Tris [pH 7.5], 0.25% sodium deoxycholate, 1% Triton X-100, supplemented with 1X protease inhibitor cocktail (Roche), and phosphatase inhibitors (10 mM NaF, 1 mM Na3VO4, and 20 mM β-glycerophosphate), unless otherwise noted. Lysates were spun at 14,000 × g for 10 min at 4 °C and supernatant was evaluated for protein content using a Pierce BCA Protein Assay (ThermoFisher Scientific). In all experiments, 25–50 μg of protein was loaded onto 10% SDS-PAGE gels or 4–20% Criterion TGX precast gradient gels (Bio-Rad), transferred to nitrocellulose membranes, and probed with the specified antibodies overnight at 4 °C in 1X TBS-Tween (Tris-buffered saline plus 0.02% Tween 20) containing 5% non-fat milk. Immunoblots were visualized using a Bio-Rad ChemiDoc imaging instrument and subsequently processed and quantified using the accompanying Bio-Rad ImageLab software. See Supplementary Figure 8 for uncropped scans of western blots shown in the main text figures.
Supplementary Figure 4 cont.
Supplementary Figure 4. Characterization of M APK fam ily degradation selectivity (related to Figures 1-2). (a) p38 M APK fam ily m em bers (α, β, δ, γ) were aligned using the T-Coffee multiple sequence alignm ent server. […] Note: JNK1 and JNK2 are expressed as two alternatively-spliced form s. […]

p38δ = biological target: T2, p38δ (Homo sapiens, UniProt O15264); experiment: PROTAC washout assay, p38δ; details: 250 nM PROTAC for 24 h, then re-plated in fresh medium
T2 construct: endogenous in cells; host or cells: MDA-MB-231
T2 sequence (O15264 1-365): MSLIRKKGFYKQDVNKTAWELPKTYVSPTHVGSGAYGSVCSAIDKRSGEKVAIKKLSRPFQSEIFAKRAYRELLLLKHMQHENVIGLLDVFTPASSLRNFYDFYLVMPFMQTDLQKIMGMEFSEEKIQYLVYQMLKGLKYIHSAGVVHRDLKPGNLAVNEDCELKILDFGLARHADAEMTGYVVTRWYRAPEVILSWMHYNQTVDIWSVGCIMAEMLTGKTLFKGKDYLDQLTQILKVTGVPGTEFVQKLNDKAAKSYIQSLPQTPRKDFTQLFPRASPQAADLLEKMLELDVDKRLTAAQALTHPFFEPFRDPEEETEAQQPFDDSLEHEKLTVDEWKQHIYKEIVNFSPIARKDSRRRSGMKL
Protocol: (§1) MDA-MB-231 cells were plated at 1.5 × 10^5 cells per well in a six-well dish and allowed to adhere overnight. On the following day, all cells were treated with either vehicle (DMSO) or PROTAC (250 nM). After 24 h, cells were either harvested or washed with 1X PBS, trypsinized, and re-plated onto new six-well dishes in fresh RPMI-1640 (1 × ) media without additional compound. For these washout conditions, cells were collected every 24 h until final harvest (72 h washout).

FLAG-p38δ = biological target: T3, FLAG-p38δ (Homo sapiens, UniProt O15264); experiment: TUBE1 immunoprecipitation of poly-Ub p38δ in HeLa cells; details: 1 µM PROTAC, 3 hours
T3 construct: expressed in transfected cells; host or cells: HeLa
T3 sequence (O15264 1-365): T2 sequence (O15264 1-365)
Protocol: TUBE1 immunoprecipitation experiments were carried out exactly as described above, except for the fact that 1 mg of normalized HeLa lysate was loaded onto 20 µL TUBE1 agarose (LifeSensors) resin per sample.
WCL IP : TU B E 1 DMS SJF SJF
Supplementary Figure 7. SJFδ in d u ces p o lyu b iq u itin atio n o f p 38δ(related to F ig u re 4).
HeLa cells were co-transfected with HA-Ub and FLAG p38δ and treated with vehicle (DM SO ), 1 µM SJFα, or 1 µM SJFδ for 3 hours. Lysates were im m unoprecipitated with tandem ubiquitin binding entity (TUBE1) agarose beads and assessed by western blots detecting FLAG (p38δ).
TUBE1 binds tetra ubiquitin chains with high affinity, thereby enriching for polyubiquitinated proteins. In this assay, HA (Ub) serves as an im m unoprecipitation control for poly-Ub TUBE1 […]

p38α = biological target: T4, p38α (Homo sapiens, UniProt Q16539); experiment: PROTAC washout assay, p38α; details: 250 nM PROTAC for 24 h, then re-plated in fresh medium
T4 construct: SJFα PROTAC (13-atom linker, amide attachment) selectively degrades p38α; endogenous in cells; host or cells: MDA-MB-231
T4 sequence (Q16539 whole entry): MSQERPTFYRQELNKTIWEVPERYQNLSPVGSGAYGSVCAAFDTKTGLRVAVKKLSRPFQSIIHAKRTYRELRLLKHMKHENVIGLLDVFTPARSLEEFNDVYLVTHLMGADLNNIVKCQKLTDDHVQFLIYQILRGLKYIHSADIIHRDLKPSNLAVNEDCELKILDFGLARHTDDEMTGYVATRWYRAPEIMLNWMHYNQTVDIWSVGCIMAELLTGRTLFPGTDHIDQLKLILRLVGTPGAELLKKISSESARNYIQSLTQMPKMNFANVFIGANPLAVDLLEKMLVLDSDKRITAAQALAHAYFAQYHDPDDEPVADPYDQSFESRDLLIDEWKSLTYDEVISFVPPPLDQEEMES
Protocol: as §1

| SMILES | p38γ degradation (p38γ) | time p38δ degradation efficacy is maintained post-washout (p38δ) | TUBE1-reactivity (poly-Ub p38δ) (FLAG-p38δ) | time p38α degradation efficacy is maintained post-washout (p38α) |
| --- | --- | --- | --- | --- |
| COc1cc2c(Oc3ccc(NC(=O)C4(C(=O)Nc5ccc(F)cc5)CC4)cc3F)ccnc2cc1OCCOCCOCCOc1cc(-c2scnc2C)ccc1CNC(=O)[C@@H]1C[C@@H](O)CN1C(=O)[C@H](C(C)C)N1Cc2ccccc2C1=O [SJFδ] | does not degrade | 24 h | increased TUBE1-reactivity | – |
| COc1cc2c(Oc3ccc(NC(=O)C4(C(=O)Nc5ccc(F)cc5)CC4)cc3F)ccnc2cc1OCCCCOCCCCOCC(=O)N[C@H](C(=O)N1C[C@H](O)C[C@H]1C(=O)NCc1ccc(-c2scnc2C)cc1)C(C)(C)C [SJFα] | does not degrade | – | – | 72 h |
